# US20120029187A1, “HALOALKYLSULFONANILIDE DERIVATIVE” (Nissan Chemical Industries, Ltd., priority 2009, published 2012)
# What was measured:
# Format in all cases: in vivo
# barnyardgrass [1] = assay: Test Example 1: herbicidal effects in preemergence treatment under submerged conditions; conditions: dose 2.52 g/a
# In short: (§1)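 Weed seeds and 2.5-leaf rice seedlings shared each flooded cup of alluvial soil. Dosing, expressed as g per are, was by pouring water-diluted emulsifiable concentrate onto the surface on sowing day. Mortality was graded 0 to 5 after three weeks' growth.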
# bulrush [2] = assay: as above; conditions: dose 2.52 g/a
# In short: as §1
# ducksalad [3] = assay: as above; conditions: dose 2.52 g/a
# In short: as §1
# barnyardgrass [4] = assay: Test Example 2: herbicidal effects during the vegetation period under submerged conditions; conditions: treatment during the vegetation period under submerged conditions; dose 2.52 g/a
# In short: (§2)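 Barnyardgrass, bulrush and ducksalad were co-sown in alluvial soil flooded to 4 cm and grown in a greenhouse at 25 to 30° C. At the 1- or 2-leaf stage, water-diluted emulsifiable concentrates went onto the water surface at set doses (g/a). Herbicidal effect was scored three weeks later on a graded scale.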
# bulrush [5] = assay: as above; conditions: treatment during the vegetation period under submerged conditions; dose 2.52 g/a
# In short: as §2
# ducksalad [6] = assay: as above; conditions: treatment during the vegetation period under submerged conditions; dose 2.52 g/a
# In short: as §2
# Italian ryegrass [7] = assay: Test Example 3: herbicidal effects in soil treatment; conditions: dose 6.3 g/a
# In short: (§3)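 Seeds were sown in sterilized diluvial soil and covered with about 1.5 cm of soil. Compounds, formulated as emulsifiable concentrates and diluted with water, were sprayed evenly over the soil surface at set doses in g/a. Herbicidal effect was scored on a rating scale three weeks later.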
# barnyardgrass [8] = assay: as above; conditions: dose 6.3 g/a
# In short: as §3
# common chickweed [9] = assay: as above; conditions: dose 6.3 g/a
# In short: as §3
# common lambsquater [10] = assay: as above; conditions: dose 6.3 g/a
# In short: as §3
# common ragweed [11] = assay: as above; conditions: dose 6.3 g/a
# In short: as §3
# giant foxtail [12] = assay: as above; conditions: dose 6.3 g/a
# In short: as §3
# large crabgrass [13] = assay: as above; conditions: dose 6.3 g/a
# In short: as §3
# redroot pigweed [14] = assay: as above; conditions: dose 6.3 g/a
# In short: as §3
# water foxtail [15] = assay: as above; conditions: dose 6.3 g/a
# In short: as §3
# wild oat [16] = assay: as above; conditions: dose 6.3 g/a
# In short: as §3
# Italian ryegrass [17] = assay: Test Example 4: herbicidal effect in foliage treatment; conditions: dose 6.3 g/a, three weeks after application
# In short: (§4)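 Seeds were spot-sown in boxes of sterilized diluvial soil and raised in a greenhouse (25 to 30° C) for 14 days before a single foliar application. Compounds were applied as emulsifiable concentrates diluted with water, at predetermined doses in g/a. Injury was graded three weeks post-spray.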
# barnyardgrass [18] = assay: as above; conditions: dose 6.3 g/a, three weeks after application
# In short: as §4
# beadstraw = assay: as above; conditions: dose 6.3 g/a, three weeks after application
# In short: as §4
# common chickweed [19] = assay: as above; conditions: dose 6.3 g/a, three weeks after application
# In short: as §4
# common lambsquater [20] = assay: as above; conditions: dose 6.3 g/a, three weeks after application
# In short: as §4
# common ragweed [21] = assay: as above; conditions: dose 6.3 g/a, three weeks after application
# In short: as §4
# giant foxtail [22] = assay: as above; conditions: dose 6.3 g/a, three weeks after application
# In short: as §4
# large crabgrass [23] = assay: as above; conditions: dose 6.3 g/a, three weeks after application
# In short: as §4
# redroot pigweed [24] = assay: as above; conditions: dose 6.3 g/a, three weeks after application
# In short: as §4
# water foxtail [25] = assay: as above; conditions: dose 6.3 g/a, three weeks after application
# In short: as §4
# wild oat [26] = assay: as above; conditions: dose 6.3 g/a, three weeks after application
# In short: as §4
Compound,"A: barnyardgrass, herbicidal effect (evaluation scale 0-5) (barnyardgrass [1])","B: bulrush, herbicidal effect (evaluation scale 0-5) (bulrush [2])","C: ducksalad, herbicidal effect (evaluation scale 0-5) (ducksalad [3])","A: barnyardgrass, herbicidal effect (evaluation scale 0-5) (barnyardgrass [4])","B: bulrush, herbicidal effect (evaluation scale 0-5) (bulrush [5])","C: ducksalad, herbicidal effect (evaluation scale 0-5) (ducksalad [6])","H: Italian ryegrass, herbicidal effect (evaluation scale 0-5) (Italian ryegrass [7])","A: barnyardgrass, herbicidal effect (evaluation scale 0-5) (barnyardgrass [8])","N: common chickweed, herbicidal effect (evaluation scale 0-5) (common chickweed [9])","L: common lambsquater, herbicidal effect (evaluation scale 0-5) (common lambsquater [10])","J: common ragweed, herbicidal effect (evaluation scale 0-5) (common ragweed [11])","E: giant foxtail, herbicidal effect (evaluation scale 0-5) (giant foxtail [12])","D: large crabgrass, herbicidal effect (evaluation scale 0-5) (large crabgrass [13])","K: redroot pigweed, herbicidal effect (evaluation scale 0-5) (redroot pigweed [14])","G: water foxtail, herbicidal effect (evaluation scale 0-5) (water foxtail [15])","F: wild oat, herbicidal effect (evaluation scale 0-5) (wild oat [16])","H: Italian ryegrass, herbicidal effect (Italian ryegrass [17])","A: barnyardgrass, herbicidal effect (barnyardgrass [18])","O: beadstraw, herbicidal effect (beadstraw)","N: common chickweed, herbicidal effect (common chickweed [19])",further results
CC1(C)CC(=O)N(Cc2ccccc2N(C(=O)C2CC2)S(=O)(=O)C(F)(F)F)CO1 [II-20],5 (mortality of 90% or above (nearly complete death)),5 (mortality of 90% or above (nearly complete death)),5 (mortality of 90% or above (nearly complete death)),5 (mortality of 90% or above (nearly complete death)),5 (mortality of 90% or above (nearly complete death)),5 (mortality of 90% or above (nearly complete death)),5 (mortality of 90% or above (nearly complete death)),5 (mortality of 90% or above (nearly complete death)),4 (mortality of at least 70% and less than 90%),0 (mortality of less than 5% (almost ineffective)),4 (mortality of at least 70% and less than 90%),4 (mortality of at least 70% and less than 90%),4 (mortality of at least 70% and less than 90%),0 (mortality of less than 5% (almost ineffective)),5 (mortality of 90% or above (nearly complete death)),0 (mortality of less than 5% (almost ineffective)),4 (mortality of at least 70% and less than 90%),5 (mortality of 90% or above (nearly complete death)),4 (mortality of at least 70% and less than 90%),3 (mortality of at least 40% and less than 70%),"L: common lambsquater, herbicidal effect (common lambsquater [20]): 0 (mortality of less than 5% (almost ineffective)); J: common ragweed, herbicidal effect (common ragweed [21]): 5 (mortality of 90% or above (nearly complete death)); E: giant foxtail, herbicidal effect (giant foxtail [22]): 5 (mortality of 90% or above (nearly complete death)); D: large crabgrass, herbicidal effect (large crabgrass [23]): 5 (mortality of 90% or above (nearly complete death)); K: redroot pigweed, herbicidal effect (redroot pigweed [24]): 0 (mortality of less than 5% (almost ineffective)); G: water foxtail, herbicidal effect (water foxtail [25]): 5 (mortality of 90% or above (nearly complete death)); F: wild oat, herbicidal effect (wild oat [26]): 0 (mortality of less than 5% (almost ineffective))"
"CC1(C)CC(=O)N(Cc2ccccc2NS(=O)(=O)C(F)(F)F)CO1 [II-17, 6,6-dimethyl-3-(2-trifluoromethanesulfonylaminobenzyl)-1,3-oxazinan-4-one]",5 (mortality of 90% or above (nearly complete death)),5 (mortality of 90% or above (nearly complete death)),5 (mortality of 90% or above (nearly complete death)),5 (mortality of 90% or above (nearly complete death)),5 (mortality of 90% or above (nearly complete death)),5 (mortality of 90% or above (nearly complete death)),4 (mortality of at least 70% and less than 90%),5 (mortality of 90% or above (nearly complete death)),4 (mortality of at least 70% and less than 90%),2 (mortality of at least 20% and less than 40%),5 (mortality of 90% or above (nearly complete death)),5 (mortality of 90% or above (nearly complete death)),5 (mortality of 90% or above (nearly complete death)),1 (mortality of at least 5% and less than 20%),5 (mortality of 90% or above (nearly complete death)),0 (mortality of less than 5% (almost ineffective)),4 (mortality of at least 70% and less than 90%),5 (mortality of 90% or above (nearly complete death)),5 (mortality of 90% or above (nearly complete death)),4 (mortality of at least 70% and less than 90%),"L: common lambsquater, herbicidal effect (common lambsquater [20]): 4 (mortality of at least 70% and less than 90%); J: common ragweed, herbicidal effect (common ragweed [21]): 5 (mortality of 90% or above (nearly complete death)); E: giant foxtail, herbicidal effect (giant foxtail [22]): 5 (mortality of 90% or above (nearly complete death)); D: large crabgrass, herbicidal effect (large crabgrass [23]): 5 (mortality of 90% or above (nearly complete death)); K: redroot pigweed, herbicidal effect (redroot pigweed [24]): 1 (mortality of at least 5% and less than 20%); G: water foxtail, herbicidal effect (water foxtail [25]): 5 (mortality of 90% or above (nearly complete death)); F: wild oat, herbicidal effect (wild oat [26]): 0 (mortality of less than 5% (almost ineffective))"
